Test results taken from publication PMC5587682 (Scientific Reports, 2017).
Residues, ends and D or L forms follow the SMILES beside them.

System: A/Parma/24/09 H1N1 oseltamivir-resistant virus
Assay type: cell-based, Influenza A virus
Details: turkey erythrocytes

Compound: C[C@H](NC(=O)[C@H](Cc1c[nH]c2ccccc12)NC(=O)[C@H](CC(=O)O)NC(=O)[C@H](C)NC(=O)[C@@H](NC(=O)[C@H](CO)NC(=O)[C@H](CCC(=O)O)NC(=O)CNC(=O)[C@H](CC(N)=O)NC(=O)[C@@H](N)[C@@H](C)O)[C@@H](C)O)C(=O)N[C@@H](CCCCN)C(=O)N[C@@H](CC(N)=O)C(N)=O [Peptide 6, TNGESTADWAKN] (H-TNGESTADWAKN-NH2; N-terminus and C-terminus assumed)
- HI titer: 1.5 nM

Compound: C[C@@H](O)[C@H](NC(=O)[C@H](CCC(=O)O)NC(=O)[C@H](CO)NC(=O)[C@@H](N)CCCCN)C(=O)N[C@@H](CCCCN)C(=O)N[C@@H](CC(N)=O)C(=O)O [Peptide 8, KSETKN] (H-KSETKN-OH; N-terminus and C-terminus assumed)
- HI titer: 0.3 nM

Compound: CC(C)C[C@H](NC(=O)[C@@H](NC(=O)[C@H](CS)NC(=O)[C@H](CC(=O)O)NC(=O)[C@H](CC(C)C)NC(=O)[C@@H](N)CO)C(C)C)C(=O)N[C@@H](CCCNC(=N)N)C(=O)N1CCC[C@H]1C(N)=O [Peptide 13, SLDCVLRP] (H-SLDCVLRP-NH2)
- HI titer: 0.00015 nM

Compound: CC(C)C[C@H](NC(=O)[C@H](CO)NC(=O)[C@H](CO)NC(=O)[C@H](Cc1c[nH]cn1)NC(=O)[C@H](CCCCN)NC(=O)[C@@H](N)CO)C(=O)N[C@@H](CC(=O)O)C(=O)N[C@@H](CS)C(=O)O [Peptide 16, SKHSSLDC] (H-SKHSSLDC-OH; N-terminus and C-terminus assumed)
- HI titer: 12 nM

Compound: NRKSSKHSSLDCVLRP [Peptide 11, bLf C-lobe fragment 414–429]
- HI titer: 12 nM

Compound: NRKSSKHSSLDCVLRPTEGY [Peptide 10, bLf C-lobe fragment 414–433]
- HI titer: 6 nM

Compound: SKHSSLDCVLRPTEGY [Peptide 12, bLf C-lobe fragment 418–433]
- HI titer: 0.1 nM
